Data: ChEMBL document CHEMBL3817764, “Pyrimidine-based antimalarials: design strategies and antiplasmodial effects” (Medchemcomm, 2016)

Experiments:
[1] = Oral bioavailability in Sprague-Dawley rat plasma by LC/MS analysis; assay type: ADME, organism-based
Plasmodium berghei = test: Antiplasmodial against Plasmodium berghei in rat malaria model assessed as parasite suppression at 30 mg/kg measured after 4 days; assay type: functional
[2] = target: Dihydroorotate dehydrogenase (quinone), mitochondrial (Homo sapiens, UniProt Q02127); test: Inhibition of human DHODH
Sequence of Dihydroorotate dehydrogenase (quinone), mitochondrial (Q02127 whole entry): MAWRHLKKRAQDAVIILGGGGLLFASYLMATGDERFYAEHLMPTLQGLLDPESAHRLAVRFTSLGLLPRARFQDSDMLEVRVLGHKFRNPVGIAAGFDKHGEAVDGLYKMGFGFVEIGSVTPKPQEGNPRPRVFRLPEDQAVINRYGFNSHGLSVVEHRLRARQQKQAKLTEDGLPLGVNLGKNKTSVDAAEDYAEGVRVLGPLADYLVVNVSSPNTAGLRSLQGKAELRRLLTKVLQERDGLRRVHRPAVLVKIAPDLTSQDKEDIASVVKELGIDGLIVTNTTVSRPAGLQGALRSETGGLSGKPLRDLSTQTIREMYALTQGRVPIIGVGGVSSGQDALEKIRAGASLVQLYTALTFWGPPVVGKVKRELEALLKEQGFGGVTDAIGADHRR

Plasmodium falciparum [3] = test: Antiplasmodial activity against chloroquine-resistant Plasmodium falciparum W2 by NBT assay; assay type: functional, organism-based
Plasmodium falciparum [4] = test: Antiplasmodial activity against chloroquine-sensitive Plasmodium falciparum D6 by NBT assay; assay type: functional, organism-based
Plasmodium falciparum [5] = test: Antimalarial activity against Plasmodium falciparum V1/S harboring DHFR N51I+C59R+S108N+I164L quadruple mutant assessed as reduction parasite growth by [3H]-hypoxanthine incorporation assay; assay type: functional, organism-based
Calf thymus DNA [6] = test: Binding affinity to calf thymus DNA assessed as induction of hypochromic shift in intensity of quinoline absorption band at 331 nm at 7.1 uM; assay type: nucleic-acid assay; conditions: Bos taurus
Calf thymus DNA [7] = test: Binding affinity to calf thymus DNA assessed as melting temperature (reference value: 59.5 degC); assay type: nucleic-acid assay; conditions: Bos taurus
Calf thymus DNA [8] = test: Binding affinity to calf thymus DNA assessed as induction of red shift at 7.1 uM; assay type: nucleic-acid assay; conditions: Bos taurus

| SMILES | IC50 (Plasmodium falciparum [3]) | IC50 (Plasmodium falciparum [4]) | also measured |
| --- | --- | --- | --- |
| Cc1nc(N)nc(N)c1OCCCOc1cc(Cl)c(Cl)cc1Cl |  |  | bioavailability [1]: 83% |
| Clc1ccc2c(NCCNc3ccnc(N4CCOCC4)n3)ccnc2c1 |  |  | Activity (Plasmodium berghei): 93.9% |
| CC1(C)N=C(N)N=C(N)N1OCCCOc1cc(Cl)c(Cl)cc1Cl.Cl |  |  | bioavailability [1]: 1% |
| Cc1cc(Nc2ccc3ccccc3c2)n2ncnc2n1 |  |  | IC50 [2]: > 200000 nM |
| Cc1cc(N2CCN(C)CC2)nc(NCCCNc2ccnc3cc(Cl)ccc23)n1 | 16 nM | 6 nM |  |
| CCN1CCN(c2cc(C)nc(NCCCNc3ccnc4cc(Cl)ccc34)n2)CC1 | 16 nM | 6 nM |  |
| Cc1cc(N2CCN(C)CC2)nc(NCCCCCCNc2ccnc3cc(Cl)ccc23)n1 | 16 nM | 6 nM |  |
| CCc1nc(N)nc(N)c1OCCCOc1ccccc1CCC(=O)O |  |  | EC50 (Plasmodium falciparum [5]): 56 nM |
| Clc1ccc2c(NCCCNc3nccc(N4CCCCC4)n3)ccnc2c1 |  |  | Activity (Calf thymus DNA [6]): 23%; Tm (Calf thymus DNA [7]): 67.8 °C; Activity (Calf thymus DNA [8]): 14 nm |
| Clc1ccc2c(NCCNc3nccc(N4CCCCC4)n3)ccnc2c1 | 16 nM | 6 nM |  |
| CN1CCN(c2ccnc(NCCCNc3ccnc4cc(Cl)ccc34)n2)CC1 | 16 nM | 6 nM |  |
| Clc1ccc2c(NCCCNc3nccc(N4CCOCC4)n3)ccnc2c1 | 16 nM | 6 nM |  |
| Cc1cc(N2CCN(C)CC2)nc(NCCCCNc2ccnc3cc(Cl)ccc23)n1 | 16 nM | 6 nM |  |
| Cc1cc(N2CCCCC2)nc(NCCCNc2ccnc3cc(Cl)ccc23)n1 | 16 nM | 6 nM |  |
